In data set [1] the test system is human prostate cancer cell line PC-3. The data set can be described thus: Flow cytometric-based screening assay for internalization in PC-3 cells. It is filed as cell-based. On the procedure: In illustrating a screening process for internalization, from clones selected for further analysis from the selection process, a flow cytometric-based assay for binding and/or internalization was utilized. Typically, the assay was performed by incubating 200 nM of each clone with 5×10^5 target cells in 100 ul PBS containing 0.5% bovine serum albumin (BSA) in a 13 mm tube for 2 hours @ 37° C. A first portion of the cells was then treated with RNAse to remove any of the clone remaining bound to the surface of the cells, so as to allow detection and quantitation of internalized clone (i.e., measuring internalization). In parallel, a second portion of the cells was treated with PBS containing 0.5% BSA (lacking added RNase activity to enzymatically cleave […]), so as to allow detection and quantitation of clone remaining bound to the cell surface, as well as internalized clone (i.e., measuring binding and internalization). Following further washes with phosphate-buffered saline, the cells were fixed in 1% formaldehyde and then subjected to analysis on a flow cytometer using commercially available analysis software. In performing analyses by flow cytometry, several assay controls were used. As an assay control representing either no or background (e.g., non-specific) internalization, an RNA molecule resulting from a selection process for binding a molecule not detectably expressed on target cells was used. The assay control RNA molecule was further modified with Alexa 647, and then used for further characterization of clones from the selection process described herein. For ease of description and reference for this Example, this assay control RNA molecule is referred to herein as Negative Control 1 (see, e.g., Table 5). As an additional assay control that represents either no or background internalization, used was an RNA molecule from the starting library which was chosen from the library prior to beginning a selection method described herein, and that was further modified with Alexa 647. This assay control RNA molecule is referred to herein as Negative Control 2 (see, e.g., Tables 5, 7, and 8). Additionally, fluorescence of unstained cells was measured, as a control, to quantitate any background fluorescent properties of the cells themselves as encountered in analyses by flow cytometry (“Unstained”), as opposed to fluorescent signal mediated by the RNA molecules further modified to include Alexa 647. Shown in Table 5 are the results of analyses by flow cytometry in which measured and quantitated was the ability of clones, selected on the basis of sequence convergence, to internalize into target cells represented by human prostate cancer cell line PC-3. The units of fluorescence in Table 5 represent mean fluorescence (“Mean”). The fold increase (determined by dividing the mean fluorescence of a clone by the mean fluorescence of unstained cells) is an indicator of the ability of a clone, or a clone which has been further modified to include an effector moiety, to internalize into the target cells (Table 5; “Fold Increase”).
The truncations, illustrated in Table 6, were each further modified with a detectable moiety, Alexa 647, and analyzed by a flow cytometric-based screening assay for internalization using the methods outlined in Example 2, to determine minimal sequences that maintain the full ability to internalize into human prostate cancer cells. Shown in Table 7 are the results of analyses by flow cytometry in which measured and quantitated was the ability of each truncation to internalize into target cells represented by human prostate cancer cell line PC-3. The units of fluorescence in Table 7 represent mean fluorescence intensity (“Mean”). […]

Data set [2] has as its system A549 human lung adenocarcinoma. The data set can be described thus: Flow cytometric binding and internalization assay, A549. Type of data set: cell-based. The settings on record: A549, malignant. The method, then: (§1) In illustrating a screening process for internalization, from clones selected for further analysis from the selection process, a flow cytometric-based assay for binding and/or internalization was utilized. Typically, the assay was performed by incubating 200 nM of each clone with 5×10^5 target cells in 100 ul PBS containing 0.5% bovine serum albumin (BSA) in a 13 mm tube for 2 hours @ 37° C. A first portion of the cells was then treated with RNAse to remove any of the clone remaining bound to the surface of the cells, so as to allow detection and quantitation of internalized clone (i.e., measuring internalization). In parallel, a second portion of the cells was treated with PBS containing 0.5% BSA (lacking added RNase activity to enzymatically cleave […]), so as to allow detection and quantitation of clone remaining bound to the cell surface, as well as internalized clone (i.e., measuring binding and internalization). […] Additionally, fluorescence of unstained cells was measured, as a control, to quantitate any background fluorescent properties of the cells themselves as encountered in analyses by flow cytometry (“Unstained”), as opposed to fluorescent signal mediated by the RNA molecules further modified to include Alexa 647. […] The units of fluorescence in Table 5 represent mean fluorescence (“Mean”). […]

Data set [3] concerns K562 human chronic myelogenous leukemia. The data set can be described thus: Flow cytometric binding and internalization assay, K562. The settings on record: K562, malignant. It is filed as cell-based. On the procedure: as §1
Data set [4] concerns WIL-2 B lymphoblastoid cell line transformed with Epstein Barr virus. The data set can be described thus: Flow cytometric binding and internalization assay, WIL-2. It is filed as cell-based, human. The settings on record: WIL-2, transformed cells. The method, then: as §1
Data set [5] deals with MCF7 human breast adenocarcinoma. The experiment in a line: Flow cytometric binding and internalization assay, MCF7. The settings on record: MCF7, malignant. It is filed as cell-based. On the procedure: as §1
For data set [6], the system named is PrEC human primary prostate epithelial cells. The data set can be described thus: Flow cytometric binding and internalization assay, PrEC. It is filed as cell-based. The settings on record: nonmalignant. On the procedure:
as §1

[7] abbreviates: Table 8, mutants of E3-45, PC-3.
[8] abbreviates: Table 7, truncations modified with Alexa 647, PC-3.

From patent US10059950B2, “Compositions comprising an internalizing nucleic acid molecule, and their methods of use” (B3 BIO, INC., priority 2012, dated 2018) come the findings set out here.

In the oligonucleotide strings, read from the 5' end, every base follows the letter of its sugar. An asterisk marks phosphorothioate; unmarked linkages are phosphodiester. Other units and linkages are bracketed, terminal groups are in braces. A string of capitals states the bases alone. r = 2'-OH (RNA); f = 2'-fluoro

As for “mutant 6: site-directed mutant of E3-45 in a loop portion containing a conserved motif (GGGUGCGGUACUUUCGGGCUUUCGGCCCCAUCAGCCCCUCAGGACG; listed as RNA, further chemistry not given here)”, in data set [1] (setting [7]), the “Fold increase (mean fluorescence intensity / unstained cells)” value is 1.9 and the “Mean (mean fluorescence intensity)” value worked out at 167.
Regarding “GGGUGCGGUACUUUCGGGCUUUCGGCAACAUCAGCCCCUCAGGACG (rGrGrGfUrGfCrGrGfUrAfCfUfUfUfCrGrGrGfCfUfUfUfCrGrGfCrArAfCrAfUfCrArGfCfCfCfCfUfCrArGrGrAfCrG; aptamer; Alexa 647 label attached, position not given here, further chemistry not fully specified) [E3-45, truncation of iNA E3, 45 bases; wildtype for mutants 1-8]”, in data set [1] (setting [8]), the “Fold increase (mean fluorescence intensity / unstained cells)” value is given as 8.6 and the “Mean (mean fluorescence intensity)” value is 690. In addition, in data set [1] (setting [7]), the “Fold increase (mean fluorescence intensity / unstained cells)” value is 5.4 and the “Mean (mean fluorescence intensity)” value came out at 470.
Turning to “GGGAGGCUUUCGGGCUUUCGGCAACAUCAGCC (rGrGrGrArGrGfCfUfUfUfCrGrGrGfCfUfUfUfCrGrGfCrArAfCrAfUfCrArGfCfC; aptamer; Alexa 647 label attached, position not given here, further chemistry not fully specified) [E3-32, truncation of iNA E3, 32 bases]”, in data set [1] (setting [8]), the “Fold increase (mean fluorescence intensity / unstained cells)” value was determined as 11.8 and the “Mean (mean fluorescence intensity)” value is 944.
Regarding “mutant 8: mutant of E3-45 with loop portion mutated to 5′ to 3′ UUUCGAG (GGGUGCGGUACUUUCGGGCUGGCACUUUCGAAAGCCCCUCAGGACG; listed as RNA, chemistry not fully specified)”, the “ability to bind and internalize as compared to wildtype iNA (E3-45)” value (“ability … compared to wildtype iNA (E3-45)” below) in data set [1] (PC-3, in words) is “loss of binding and internalization”. Further, in data set [1] (setting [7]), the “Fold increase (mean fluorescence intensity / unstained cells)” value turned out to be 1.5 and the “Mean (mean fluorescence intensity)” value worked out at 130.
As to “mutant 2: mutant of E3-45 with the conserved motif UUUCGG mutated in a loop portion (GGGUGCGGUACUAAAGGGCUUUCGGCAACAUCAGCCCAAAAGGACG; aptamer; listed as RNA, chemistry not fully specified)”, in data set [1] (PC-3, in words), the “ability … compared to wildtype iNA (E3-45)” value was “loss of the ability to bind and internalize”. Also, in data set [1] (setting [7]), the “Fold increase (mean fluorescence intensity / unstained cells)” value was 1.5 and the “Mean (mean fluorescence intensity)” value was determined as 127.
With “mutant 7: site-directed mutant of E3-45 in a loop portion containing a conserved motif (GGGUGCGGUACUUUCGGGCUUUCGGCAACUAUAGCCCCUCAGGACG; listed as RNA, further chemistry not given here)”, in data set [1] (setting [7]), the “Fold increase (mean fluorescence intensity / unstained cells)” value is recorded as 1.8 and the “Mean (mean fluorescence intensity)” value turned out to be 153.
On to “GGGAGGCUGGGCUUUCGGCAAC (rGrGrGrArGrGfCfUrGrGrGfCfUfUfUfCrGrGfCrArAfC; aptamer; Alexa 647 label attached, position not given here, further chemistry not fully specified) [E3-22, truncation of iNA E3, 22 bases]”, for which, in data set [1] (setting [8]), the “Fold increase (mean fluorescence intensity / unstained cells)” value turned out to be 1.0 and the “Mean (mean fluorescence intensity)” value turned out to be 80.7.
As to “mutant 1: assay control mutant of E3-45, mutation in a loop not containing the conserved motif UUUCGG (GGGUGCGAAACUUUCGGGCUUUCGGCAACAUCAGCCCCUCAGACCG; listed as RNA, chemistry not fully specified)”, the “ability … compared to wildtype iNA (E3-45)” value in data set [1] (PC-3, in words) is recorded as “ability to internalize equally”. In data set [1] (setting [7]), the “Fold increase (mean fluorescence intensity / unstained cells)” value was 4.7 and the “Mean (mean fluorescence intensity)” value worked out at 405.
For the molecule “mutant 3: mutant of E3-45 with the conserved motif UUUCGG mutated in a loop portion (GGGUGCGGUACUUUCGGGCUAAAGGCAACAUCAGCCCCUCAGGACG; aptamer; listed as RNA, chemistry not fully specified)”, the “ability … compared to wildtype iNA (E3-45)” value in data set [1] (PC-3, in words) is “loss of the ability to bind and internalize”. In data set [1] (setting [7]), the “Fold increase (mean fluorescence intensity / unstained cells)” value amounted to 1.6 and the “Mean (mean fluorescence intensity)” value is on record as 142.
For the molecule “mutant 4: mutant of E3-45 with the conserved motif UUUCGG mutated in a loop portion (GGGUGCGGUACUUUCGGGCUUUCAAAAACAUCAGCCCCUCAGGACG; aptamer; listed as RNA, chemistry not fully specified)”, the “ability … compared to wildtype iNA (E3-45)” value in data set [1] (PC-3, in words) was “loss of the ability to bind and internalize”. Also, in data set [1] (setting [7]), the “Fold increase (mean fluorescence intensity / unstained cells)” value was found to be 2.0 and the “Mean (mean fluorescence intensity)” value was 176.
In the case of “mutant 5: site-directed mutant of E3-45 in a loop portion containing a conserved motif (GGGUGCGGUACUUUCGGGCUUUCGGCUUUAUCAGCCCCUCAGGACG; listed as RNA, further chemistry not given here)”, in data set [1] (setting [7]), the “Fold increase (mean fluorescence intensity / unstained cells)” value was found to be 1.9 and the “Mean (mean fluorescence intensity)” value is 164.

B1: D11: RNA iNA clone from Round 14 toggle selection, variable region SEQ ID NO:20 UCCCCGGAUUUCGGAUACGAUCCCUCAUCCCUUGACCGCA, 2′ fluoro pyrimidines (nucleic acid)
chain: rGrGrGrArGrGrAfCrGrAfUrGfCrGrGfUfCfCfCfCrGrGrAfUfUfUfCrGrGrAfUrAfCrGrAfUfCfCfCfUfCrAfUfCfCfCfUfUrGrAfCfCrGfCrArAfUfUfUfCfUfCfCfUrAfCfUrGrGrGrAfUrArGrGfUrGrGrAfUfUrAfU
modifications: Alexa 647 attached for internalization assay, further chemistry not fully specified
B1: the Fold increase came to 3.2 in data set [2]; 5.8 in data set [1] (Table 9, PC3, malignant); 19.0 in data set [3]; 11.4 in data set [4]; 11.7 in data set [5]; 2.7 in data set [6]. The “internalization into cells (conclusion from Table 5)” value in data set [1] (PC-3, in words) is on record as “mediate internalization into cells”. For the same molecule, in data set [1] (Table 5, 200 nM Alexa 647-modified clone, 2 hours @ 37° C., PC-3), the “Fold Increase (mean fluorescence of clone / unstained cells)” value turned out to be 5.8. In data set [1] (Table 5, 200 nM Alexa 647-modified clone, 2 hours @ 37° C., flow cytometry, PC-3), the “Mean (mean fluorescence)” value turned out to be 460.

B2: GGGAGGACGAUGCGGUACUUUCGGGCUUUCGGCAACAUCAGCCCCUCAGGACGCAAUUUCUC (nucleic acid)
chain: rGrGrGrArGrGrAfCrGrAfUrGfCrGrGfUrAfCfUfUfUfCrGrGrGfCfUfUfUfCrGrGfCrArAfCrAfUfCrArGfCfCfCfCfUfCrArGrGrAfCrGfCrArAfUfUfUfCfUfC
modifications: Alexa 647 label attached, position not given here, further chemistry not fully specified
notes: truncation of iNA E3, 62 bases
For B2, in data set [1] (setting [8]), the “Fold increase (mean fluorescence intensity / unstained cells)” value turned out to be 10.7 and the “Mean (mean fluorescence intensity)” value came to 858.
